Test results from patent US20220030868A1, “FUNGICIDAL HALOMETHYL KETONES AND HYDRATES” (FMC CORPORATION, priority 2018, published 2022).

Assays:
Phakopsora pachyrhizi = test: Test A: test suspension sprayed on soybean seedlings one day before inoculation with Phakopsora pachyrhizi spores (Asian soybean rust), visual disease rating; type: in vivo; conditions: 100 = 100% disease control, 0 = no control
Excerpt: General protocol for preparing test suspensions for Tests A-C: the test compounds were first dissolved in acetone in an amount equal to 3% of the final volume and then suspended at the desired concentration (in ppm) in acetone and purified water (50/50 mix by volume) containing 250 ppm of the surfactant PEG400 (polyhydric alcohol esters). The resulting test suspensions were then used in Tests A-C.
The test solution was sprayed to the point of run-off on soybean seedlings. The following day the seedlings were inoculated with a spore suspension of Phakopsora pachyrhizi (the causal agent of Asian soybean rust) and incubated in a saturated atmosphere at 22° C. for 24 h, and then moved to a growth chamber at 22° C. for 8 days, after which time visual disease ratings were made.
Results for Tests A-C are given in Table A. In the Table, a rating of 100 indicates 100% disease control and a rating of 0 indicates no disease control (relative to the controls). An asterisk “*” or a double asterisk “**” next to the rating value indicates a 50 ppm or 10 ppm test suspension was used, respectively. A dash (-) indicates the compound was not tested.

[1] = system: Puccinia recondita f. sp. tritici; test: Test B: test suspension sprayed on wheat seedlings one day before inoculation with Puccinia recondita f. sp. tritici spores (wheat leaf rust), disease rating; type: in vivo; conditions: 100 = 100% disease control, 0 = no control
Excerpt: General protocol for preparing test suspensions for Tests A-C: the test compounds were first dissolved in acetone in an amount equal to 3% of the final volume and then suspended at the desired concentration (in ppm) in acetone and purified water (50/50 mix by volume) containing 250 ppm of the surfactant PEG400 (polyhydric alcohol esters). The resulting test suspensions were then used in Tests A-C. The test solution was sprayed to the point of run-off on wheat seedlings. The following day the seedlings were inoculated with a spore suspension of Puccinia recondita f. sp. tritici (the causal agent of wheat leaf rust) and incubated in a saturated atmosphere at 20° C. for 24 h, and then moved to a growth chamber at 20° C. for 6 days, after which time disease ratings were made. Results for Tests A-C are given in Table A. In the Table, a rating of 100 indicates 100% disease control and a rating of 0 indicates no disease control (relative to the controls). An asterisk “*” or a double asterisk “**” next to the rating value indicates a 50 ppm or 10 ppm test suspension was used, respectively. A dash (-) indicates the compound was not tested.

SMILES	Test A rating (disease control) (Phakopsora pachyrhizi; 10 ppm test suspension) [%]	Test B rating (disease control) ([1]; 10 ppm test suspension) [%]	further results
C#CCOC(=O)c1cnn(Cc2ccc(OCC3(C(F)(F)F)OCCO3)cc2)c1 [compound 15]	100	0	
CCCCCCOC(=O)c1cnn(Cc2ccc(OCC3(C(F)(F)F)OCCO3)cc2)c1 [compound 16]	99	0	
O=C(OCc1ccc(Cl)c(Cl)c1)c1cnn(Cc2ccc(OCC3(C(F)(F)F)OCCO3)cc2)c1 [compound 17]	100	0	
O=C(OCc1ccc(F)c(F)c1)c1cnn(Cc2ccc(OCC3(C(F)(F)F)OCCO3)cc2)c1 [compound 18]	100	0	
CN(C)C(=O)C1=NOC(c2ccc(OCC3(C(F)(F)F)OCCO3)cc2)C1 (stereo not drawn) [compound 22]	38	0	
CCS(=O)(=O)Cc1ccc(OCC2(C(F)(F)F)OCCO2)cc1 [compound 23]	0	19	
CS(=O)(=O)c1ccc(OCC2(C(F)(F)F)OCCO2)cc1 [compound 24]	81	91	
CN(C)S(=O)(=O)c1ccc(OCC2(C(F)(F)F)OCCO2)cc1 [compound 25]	0	0	
CCOC(=O)c1cnn(C(C)c2ccc(OCC3(C(F)(F)F)OCCO3)cc2)c1 (stereo not drawn) [compound 26]	99	0	
COC(=O)NN=Cc1ccc(OCC2(C(F)(F)F)OCCO2)cc1 [compound 27]	0	0	
FC(F)(F)C1(COc2ccc(OCC3(C(F)(F)F)OCCO3)cc2)OCCO1 [compound 28]	0	0	
CCOC(=O)c1cnn(Cc2ccc(O/C=C(\OC)C(F)(F)F)cc2)c1 [compound 53]			Test A rating (disease control) (Phakopsora pachyrhizi; 50 ppm test suspension): 100%; Test B rating (disease control) ([1]; 50 ppm test suspension): 67%
CCOC(=O)c1cnn(Cc2ccc(O/C=C(\OCCOC)C(F)(F)F)cc2)c1 [compound 54]	0	0	
C=CCO/C(=C\Oc1ccc(Cn2cc(C(=O)OCC)cn2)cc1)C(F)(F)F [compound 55]	0	0	
C#CCO/C(=C\Oc1ccc(Cn2cc(C(=O)OCC)cn2)cc1)C(F)(F)F [compound 56]	38	0	
CCO/C(=C\Oc1ccc(S(C)(=O)=O)cc1)C(F)(F)F [compound 60]	0	0	
CCO/C(=C\Oc1ccc(S(=O)(=O)N(C)C)cc1)C(F)(F)F [compound 61]	0	0	
CCO/C(=C\Oc1ccc(CS(=O)(=O)CC)cc1)C(F)(F)F [compound 62]	0	0	
CCCO/C(=C\Oc1ccc(Cn2cc(C(=O)OCC)cn2)cc1)C(F)(F)F [compound 65]	100	0	
CCOC(=O)c1cnn(Cc2ccc(CCC3(C(F)(F)F)OCCO3)cc2)c1 [compound 67]			Test A rating (disease control) (Phakopsora pachyrhizi; 50 ppm test suspension): 65%; Test B rating (disease control) ([1]; 50 ppm test suspension): 0%
CCO/C(=C\Oc1ccc(C(=O)O)cc1)C(F)(F)F [compound 72]			Test A rating (disease control) (Phakopsora pachyrhizi; 50 ppm test suspension): 13%; Test B rating (disease control) ([1]; 50 ppm test suspension): 0%
CCO/C(=C\Oc1ccc(C(=O)OC(C)C)cc1)C(F)(F)F [compound 73]	0	0	
C=CCOC(=O)c1ccc(O/C=C(\OCC)C(F)(F)F)cc1 [compound 74]	0	0	

SMILES	Test A rating (disease control) (Phakopsora pachyrhizi; 10 ppm test suspension) [%]	Test B rating (disease control) ([1]; 10 ppm test suspension) [%]	further results
C#CCOC(=O)c1ccc(O/C=C(\OCC)C(F)(F)F)cc1 [compound 75]	0	0	
CC(C)CS(=O)(=O)NCc1ccc(OCC2(C(F)(F)F)OCCO2)cc1 [compound 76]	0	0	
FC(F)(F)C1(COc2ccc(CNC(=S)NC3CCCCC3)cc2)OCCO1 [compound 77]	0	0	
CCOC(=O)NCc1ccc(OCC2(C(F)(F)F)OCCO2)cc1 [compound 78]	94	0	
CCO/C(=C\Oc1ccc(C(C)=O)cc1)C(F)(F)F [compound 79]			Test A rating (disease control) (Phakopsora pachyrhizi; 50 ppm test suspension): 0%; Test B rating (disease control) ([1]; 50 ppm test suspension): 0%
CCOC(=O)Cc1nnn(Cc2ccc(O/C=C(\OCC)C(F)(F)F)cc2)n1 [compound 83]	82	0	
CCOC(=O)Cc1nnnn1Cc1ccc(O/C=C(\OCC)C(F)(F)F)cc1 [compound 84]	0	0	
CCO/C(=C\Oc1ccc(Cn2cncc2C(=O)OC)cc1)C(F)(F)F [compound 85]	89	0	
CCO/C(=C\Oc1ccc(Cn2cnc(C(=O)OC)c2)cc1)C(F)(F)F [compound 86]	99	0	
CCO/C(=C\Oc1ccc(Cn2ncc3cccnc32)cc1)C(F)(F)F [compound 87]	0	0	
CCO/C(=C\Oc1ccc(Cn2cc(C(=O)OC(C)(C)C)cn2)cc1)C(F)(F)F [compound 89]	0	0	
CCOC(=O)c1cc(OC)n(Cc2ccc(O/C=C(\OCC)C(F)(F)F)cc2)n1 [compound 90]	100	0	
CCO/C(=C\Oc1ccc(Cn2cc(C(=O)OC)c3ccccc32)cc1)C(F)(F)F [compound 91]	0	0	
CCO/C(=C\Oc1ccc(CN2OCC(C)(C)C2=O)cc1)C(F)(F)F [compound 92]	0	0	
O=C(O)c1cnn(Cc2ccc(OCC3(C(F)(F)F)OCCO3)cc2)c1 [compound 93]	96	0	
CCCOC(=O)c1ccc(O/C=C(\OCC)C(F)(F)F)cc1 [compound 94]	0	0	
CCOC(=O)c1ccc(O/C=C(\OCC)C(F)(F)F)cc1 [compound 95]	0	0	
CCOC(=O)C=CCOc1ccc(O/C=C(\OCC)C(F)(F)F)cc1 [compound 96]	13	0	
N#Cc1ccc(OCC2(C(F)(F)F)OCCO2)cc1 [compound 98]			Test A rating (disease control) (Phakopsora pachyrhizi; 250 ppm test suspension): 100%; Test B rating (disease control) ([1]; 250 ppm test suspension): 100%
CCO/C(=C\Oc1ccc(C(N)=O)cc1)C(F)(F)F [compound 99]	0	80	
CCO/C(=C\Oc1ccc(C(=O)NC2CC2)cc1)C(F)(F)F [compound 100]	0	0	
CCO/C(=C\Oc1ccc(C(=O)NC(C)C)cc1)C(F)(F)F [compound 101]	0	0	
